Measured values: PubChem BioAssay AID463204 (Broad Institute, 2010)
The source made the active and inactive calls.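 Rule for the calls: active = AC50 no more than ten times the top concentration tested, that is within one log above it; inconclusive = flat curve fit with activity between 30% and 70%, or invalid poor fit; inactive = AC50 beyond ten times the top tested dose.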

Tested on: S. cerevisiae Mot1-301 ts growth rescue, BacTiter-Glo ATP luminescence
Test: growth rescue of Mot1-301 ts yeast, confirmation, SUMOylation pathway inhibitor project, whole organism, S. cerevisiae, Mot1-301 ts mutant, luminescence, dose retest (AID 463204);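 note: growth at restrictive 38.5 degrees C of Mot1-301 OY566 strain; actives raise luminescence by restoring growth of the ts mutant at high temperature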

O=C(Nc1nccs1)c1ccc(S(=O)(=O)c2ccccc2)cc1
AC50: > 42 µM (inactive)

CCN1C(=NCC(C)C)N[C@@H](c2cccc(C(F)(F)F)c2)C(C(=O)OC)=C1C
AC50: > 42 µM (inactive)

O=C(c1cnn2c(C(F)(F)F)cc(-c3ccco3)nc12)N1CCCc2ccccc21
AC50: > 42 µM (inactive)

CN(C)/C=N/NC(=O)c1ccccc1
AC50: > 42 µM (inactive)

O=C(c1ccc(Br)cc1)C(CN1CCOCC1)c1ccccc1 (centres undefined)
AC50: 0.65 µM

O=C(CCN1CCc2ccccc2C1)Nc1ccc2c(c1)OCO2
AC50: > 42 µM (inactive)

CC/C(=N\Nc1ccc([N+](=O)[O-])cc1)c1ccccc1
AC50: > 42 µM (inactive)

COC(=O)C1=C(C)NC(C)=C([N+](=O)[O-])C1c1ccccc1C(F)(F)F (centres undefined)
AC50: > 42 µM (inactive)

C=CCNC(=O)NC(=O)COC(=O)/C(C#N)=C/c1cc(C)n(CC(C)C)c1C
AC50: > 42 µM (inactive)

Cn1c(=O)c2c(ncn2CC(=O)OCC(=O)Nc2ccc(Cl)cc2)n(C)c1=O
AC50: > 42 µM (inactive)

O=C(NCCCn1ccnc1)c1ccc(Cl)cc1
AC50: > 42 µM (inactive)

Cc1ccc(N(C(=O)CCl)C(C(=O)NC2CCCCC2)c2cccnc2)cc1C (centres undefined)
AC50: 9.72 µM

Cc1cnc(C(=O)OC(C(=O)c2c[nH]c3ccccc23)c2ccccc2)cn1 (centres undefined)
AC50: 29.4 µM

NC(=O)c1ccccc1NC(=O)c1ccc2c(c1)OCO2
AC50: > 42 µM (inactive)

CCc1ccc(-c2nc(SCC(=O)N3CCOCC3)n[nH]2)cc1
AC50: > 42 µM (inactive)

CCCCNC(=O)C1C2C=CC3(CN(Cc4ccc(C)cc4)C(=O)C13)O2 (centres undefined)
AC50: > 42 µM (inactive)

CCOC(=O)c1c(C)[nH]c2c1cc(O)c1ccccc12
AC50: > 42 µM (inactive)

CCCC(=O)Nc1ccc(Sc2ccc([N+](=O)[O-])cc2)cc1
AC50: 30.9 µM

O=C(CSc1nnc(-c2cccs2)n1-c1ccccc1)c1ccc2c(c1)OCCO2
AC50: > 42 µM (inactive)

C/C(CC(=O)Nc1cccnc1)=N\NC(=O)C(C)Oc1ccc(Cl)cc1Cl (centres undefined)
AC50: > 42 µM (inactive)

O=C(c1cn(-c2ccccc2)nc1-c1cccs1)N1CCOCC1
AC50: > 42 µM (inactive)

COc1cccc(CN(C)C(=O)C2CCC(=O)N(Cc3cccc(F)c3)C2)c1 (centres undefined)
AC50: > 42 µM (inactive)

COCCCNC(=O)c1cc(C(=O)c2c(-c3c(Cl)cccc3Cl)noc2C)c[nH]1
AC50: > 42 µM (inactive)

CC(=O)NC1CCCN(O)C(=O)/C=C(\C)CCOC(=O)C(NC(C)=O)CCCN(O)C(=O)/C=C(\C)CCOC(=O)C(NC(C)=O)CCCN(O)C(=O)/C=C(\C)CCOC1=O (centres undefined)
AC50: > 42 µM (inactive)

O=C(O)C1CCCN1C(=O)c1cncc(Br)c1 (centres undefined)
AC50: > 42 µM (inactive)

O=C(N/N=C/c1cccs1)c1cncc(Br)c1
AC50: > 42 µM (inactive)

O=C(NC1CCCCC1)c1ccc2c(=O)n(CC3CCCO3)c(=O)[nH]c2c1 (centres undefined)
AC50: > 42 µM (inactive)

CCNC(=O)/C(C#N)=C/c1c(N2CCCCCC2)nc2ccccn2c1=O
AC50: > 42 µM (inactive)

COc1cccc2[nH]c(=O)c(-c3ccccc3)cc12
AC50: > 42 µM (inactive)

COc1cc(CNCc2ccc3c(c2)OCO3)c([N+](=O)[O-])cc1OC
AC50: > 42 µM (inactive)

Cc1cc(C)cc(NC(=O)C2CCCN(S(=O)(=O)c3ccc4[nH]c(=O)ccc4c3)C2)c1 (centres undefined)
AC50: > 42 µM (inactive)

Cc1nn(C)c(Cl)c1CN1CCN(CCC(C)C)C(CCO)C1 (centres undefined)
AC50: > 42 µM (inactive)

CC1CCN(CCCCOc2cccc(C(C)C)c2)CC1
AC50: > 42 µM (inactive)

Nc1cc(-c2ccc(Cl)cc2)nn1S(=O)(=O)c1ccc(Cl)cc1
AC50: > 42 µM (inactive)

O=C(CCNC(=O)c1ccccc1)Nc1cccnc1
AC50: > 42 µM (inactive)

Cc1ccc(NC(=O)C(CC(C)C)NC(=O)C2CCC(C)CC2)nc1 (centres undefined)
AC50: > 42 µM (inactive)

O=C(Cc1ccccc1)N1CCCC1c1ccccc1 (centres undefined)
AC50: > 42 µM (inactive)

O=C1CC(c2cccc(Br)c2)C2=C(COC2=O)N1 (centres undefined)
AC50: > 42 µM (inactive)

O=C(/C(=N\Nc1ccc(Br)cc1)Sc1nnnn1-c1ccccc1)c1ccccc1
AC50: > 42 µM (inactive)

Cc1cc(C(=O)NNC(=O)c2ccc(C)s2)c(C)o1
AC50: > 42 µM (inactive)

COC/C=C/C1=CC2=CC(=O)C(C)(OC(=O)c3cnc4ccccc4n3)C(=O)C2=CN1CCOC (centres undefined)
AC50: > 42 µM (inactive)

CC1CN(S(=O)(=O)c2cccc(C(=O)N=c3sccn3C)c2)CC(C)O1 (centres undefined)
AC50: > 42 µM (inactive)

CCOC(=O)Nc1sc(=S)n(C)c1C
AC50: > 42 µM (inactive)

Cc1ccc(NS(=O)(=O)c2ccc(NC(=O)C3CCCO3)cc2)cc1 (centres undefined)
AC50: > 42 µM (inactive)

Cc1cc(C)c2nc(-c3cccnc3)cc(C(=O)Nc3ccc(S(=O)(=O)Nc4onc(C)c4C)cc3)c2c1
AC50: > 42 µM (inactive)

CCN(CC)S(=O)(=O)c1ccc(S(=O)(=O)N2CCC(C(=O)NC3CCN(Cc4ccccc4)CC3)CC2)cc1
AC50: > 42 µM (inactive)

Cc1ccc(/C=N/NC(=O)NC23CC4CC(CC(C4)C2)C3)o1
AC50: > 42 µM (inactive)

O=C(Nc1ccc([N+](=O)[O-])cn1)c1ccc2c(c1)OCO2
AC50: > 42 µM (inactive)

Cc1ccc(NC(=O)C(=O)NCC2CCCN2S(=O)(=O)c2cccs2)cc1 (centres undefined)
AC50: > 42 µM (inactive)

COC(=O)[C@@H]1C[C@@H]2CC[C@@H](O)C[C@@H]2N1Cc1ccc(N2CCN(C)CC2)cc1
AC50: > 42 µM (inactive)

CSc1ccc(CCNC(=O)C2CCCN(S(=O)(=O)N3CCOCC3)C2)cc1 (centres undefined)
AC50: > 42 µM (inactive)

O=[N+]([O-])c1nn(-c2ccc(Cl)cc2)n(O)c1=NCc1ccccc1Cl
AC50: 24 µM

CCS(=O)(=O)c1nc(S(=O)(=O)c2ccc(Cl)cc2)c(N2CCc3ccccc3C2)s1
AC50: > 42 µM (inactive)

CCOC(=O)c1ccc(NC(=S)NCCCN2CCOCC2)cc1
AC50: > 110 µM (inactive)

Cc1ccc(S(=O)(=O)N(C)c2ccc(OC(=O)CN3C(=O)NC4(CCCC4)C3=O)cc2)cc1C
AC50: > 42 µM (inactive)

CC(NC(=O)OCc1ccccc1)C(=O)N1CC(O)CC1C(=O)O (centres undefined)
AC50: > 21 µM (inactive)

Cc1c(C(=O)OCC(=O)Nc2ccc(S(N)(=O)=O)cc2)oc2c1ccc1ccccc12
AC50: > 42 µM (inactive)

COc1ccc2nc(SCC(=O)N(C)CC(=O)Nc3ccc(F)cc3)[nH]c2c1
AC50: > 42 µM (inactive)

CC1(C)Cc2nc3sc4c(OCc5ccccc5)ncnc4c3cc2CO1
AC50: > 42 µM (inactive)

COc1ccc(-c2csc(Nc3cc(C)ccn3)n2)cc1C
AC50: > 42 µM (inactive)

COCCNC(=O)C(c1ccc(C)cc1)N(C(=O)CCC(=O)Nc1ccccn1)c1cccc(C)c1 (centres undefined)
AC50: > 42 µM (inactive)

O=C(O)c1ccc(S(=O)(=O)N2CCN(c3ccccn3)CC2)cc1
AC50: > 42 µM (inactive)

Cc1cc(C)cc(N(CC(=O)Nc2cccc(C)n2)S(=O)(=O)c2c(C)noc2C)c1
AC50: > 42 µM (inactive)

COc1ccc2cc3c(N)nn(C(=O)c4ccccc4Cl)c3nc2c1
AC50: > 42 µM (inactive)

CCOc1ccc(C)cc1S(=O)(=O)n1nc(C)cc1C
AC50: > 42 µM (inactive)

COc1ccc(C)cc1NC(=O)Cn1c(=O)oc2ccccc21
AC50: > 42 µM (inactive)

Cc1ccc(NS(=O)(=O)c2c(C)[nH]c(C)c2C(=O)N2CCCCC2)c(Cl)c1
AC50: > 42 µM (inactive)

O=C(Oc1ccccc1N1C(=O)C2CC=CCC2C1=O)c1ccc(Br)cc1 (centres undefined)
AC50: > 42 µM (inactive)

O=C1CCCN1CCC1CCN(C2CC(=O)N(c3ccc(Cl)cc3)C2=O)CC1 (centres undefined)
AC50: 10.1 µM
